How the values were obtained:
NCI-H460 = assay: Cytotoxicity against human NCI-H460 cells assessed as growth level at 10 uM after 48 hrs by SRB assay; assay type: functional
[1] = Cytotoxicity against human HCT116 cells assessed as growth level at 10 uM after 48 hrs by SRB assay; assay type: functional, HCT-116
KM12 = assay: Cytotoxicity against human KM12 cells assessed as growth level at 10 uM after 48 hrs by SRB assay; assay type: functional
[2] = Cytotoxicity against human SW620 cells assessed as growth level at 10 uM after 48 hrs by SRB assay; assay type: functional, SW-620
[3] = Cytotoxicity against human SNB19 cells assessed as growth level at 10 uM after 48 hrs by SRB assay; assay type: functional, SNB-19
SK-MEL-28 = assay: Cytotoxicity against human SK-MEL-28 cells assessed as growth level at 10 uM after 48 hrs by SRB assay; assay type: functional
[4] = Cytotoxicity against human UACC257 cells assessed as growth level at 10 uM after 48 hrs by SRB assay; assay type: functional, UACC-257
[5] = Cytotoxicity against human SKOV3 cells assessed as growth level at 10 uM after 48 hrs by SRB assay; assay type: functional, SK-OV-3
[6] = Cytotoxicity against human UO31 cells assessed as growth level at 10 uM after 48 hrs by SRB assay; assay type: functional, UO-31
MCF7 = assay: Cytotoxicity against human MCF7 cells assessed as growth level at 10 uM after 48 hrs by SRB assay; assay type: functional
[7] = Cytotoxicity against human Hs578T cells assessed as growth level at 10 uM after 48 hrs by SRB assay; assay type: functional, Hs-578T
T47D = assay: Cytotoxicity against human T47D cells assessed as growth level at 10 uM after 48 hrs by SRB assay; assay type: functional
MDA-MB-468 [8] = assay: Cytotoxicity against human MDA-MB-468 cells assessed as growth level at 10 uM after 48 hrs by SRB assay; assay type: functional
CCRF-CEM = assay: Cytotoxicity against human CCRF-CEM cells after 48 hrs by SRB assay; assay type: functional
[9] = Cytotoxicity against human HL-60(TB) cells after 48 hrs by SRB assay; assay type: functional; details: HL-60, 48 h
[10] = Cytotoxicity against human MOLT4 cells after 48 hrs by SRB assay; assay type: functional; details: MOLT-4, 48 h
SR = assay: Cytotoxicity against human SR cells after 48 hrs by SRB assay; assay type: functional
EKVX = assay: Cytotoxicity against human EKVX cells after 48 hrs by SRB assay; assay type: functional
[11] = Cytotoxicity against human SW620 cells after 48 hrs by SRB assay; assay type: functional; details: SW-620, 48 h
[12] = Cytotoxicity against human SF295 cells after 48 hrs by SRB assay; assay type: functional; details: SF-295, 48 h
M14 = assay: Cytotoxicity against human M14 cells after 48 hrs by SRB assay; assay type: functional; details: M14, 48 h
[13] = Cytotoxicity against human OVCAR3 cells after 48 hrs by SRB assay; assay type: functional; details: OVCAR-3, 48 h
[14] = Cytotoxicity against human PC3 cells after 48 hrs by SRB assay; assay type: functional; details: PC-3, 48 h
[15] = Cytotoxicity against human DU145 cells after 48 hrs by SRB assay; assay type: functional; details: DU-145, 48 h
[16] = Cytotoxicity against human BT549 cells after 48 hrs by SRB assay; assay type: functional; details: BT-549, 48 h
MDA-MB-468 [17] = assay: Cytotoxicity against human MDA-MB-468 cells after 48 hrs by SRB assay; assay type: functional; details: MDA-MB-468, 48 h
K562 = assay: Cytotoxicity against human K562 cells assessed as growth level at 10 uM after 48 hrs by SRB assay; assay type: functional
[18] = Cytotoxicity against human HL-60(TB) cells assessed as growth inhibition at 10 uM after 48 hrs by SRB assay; assay type: functional; details: HL-60, 48 h, read-out: GI
[19] = Cytotoxicity against human MOLT4 cells assessed as growth inhibition at 10 uM after 48 hrs by SRB assay; assay type: functional; details: MOLT-4, 48 h, read-out: GI
[20] = Cytotoxicity against human HOP92 cells assessed as growth inhibition at 10 uM after 48 hrs by SRB assay; assay type: functional; details: HOP-92, 48 h, read-out: GI
NCI-H23 = assay: Cytotoxicity against human NCI-H23 cells assessed as growth inhibition at 10 uM after 48 hrs by SRB assay; assay type: functional; details: NCI-H23, 48 h, read-out: GI
NCI-H322M = assay: Cytotoxicity against human NCI-H322M cells assessed as growth inhibition at 10 uM after 48 hrs by SRB assay; assay type: functional; details: read-out: GI
[21] = Cytotoxicity against human COLO205 cells assessed as growth inhibition at 10 uM after 48 hrs by SRB assay; assay type: functional; details: COLO 205, 48 h, read-out: GI
[22] = Cytotoxicity against human SNB75 cells assessed as growth inhibition at 10 uM after 48 hrs by SRB assay; assay type: functional; details: SNB-75, 48 h, read-out: GI
[23] = Cytotoxicity against human LOXIMVI cells assessed as growth inhibition at 10 uM after 48 hrs by SRB assay; assay type: functional; details: LOX IMVI, read-out: GI
[24] = Cytotoxicity against human OVCAR8 cells assessed as growth inhibition at 10 uM after 48 hrs by SRB assay; assay type: functional; details: OVCAR-8, 48 h, read-out: GI
[25] = Cytotoxicity against human Caki1 cells assessed as growth inhibition at 10 uM after 48 hrs by SRB assay; assay type: functional; details: CAKI-1, 48 h, read-out: GI
[26] = Cytotoxicity against human RXF393 cells assessed as growth inhibition at 10 uM after 48 hrs by SRB assay; assay type: functional; details: RXF 393, 48 h, read-out: GI
[27] = Cytotoxicity against human TK10 cells assessed as growth inhibition at 10 uM after 48 hrs by SRB assay; assay type: functional; details: TK-10, 48 h, read-out: GI
[28] = Cytotoxicity against human BT549 cells assessed as growth inhibition at 10 uM after 48 hrs by SRB assay; assay type: functional; details: BT-549, 48 h, read-out: GI
[29] = read-out: LC50 (the source's name)

For C=C1CC[C@@H]2[C@](C)(COC(C)=O)[C@H](OC(C)=O)CC[C@@]2(C)[C@@H]1CC(Nc1ccc(S(=O)(=O)NC(C)=O)cc1)C1=CCOC1=O (mixture of isomers), the Activity (NCI-H460) was 5.29%, the Activity [1] was -63.92% and the Activity (KM12) was -34%. For the same compound, the Activity [2] was -65.65%, the Activity [3] was 23.04% and the Activity (SK-MEL-28) was -36.62%. For the same compound, the Activity [4] was -10.57%, the Activity [5] was 67.34% and the Activity [6] was -58.46%. The Activity (MCF7) was -33.6%, the Activity [7] was 32.45% and the Activity (T47D) was -3.67%. The Activity (MDA-MB-468 [8]) was -53.94%, the GI50 (CCRF-CEM) was 1930 nM and the TGI (CCRF-CEM) was 6.26 µM. The CC50 (CCRF-CEM; [29]) was greater than 75 µM, the GI50 [9] was 2450 nM and the TGI [9] was 12 µM. The CC50 [9, 29] was greater than 75 µM, the GI50 [10] was 2200 nM and the LC50 [10] was greater than 75 µM. It also gave a TGI [10] of 6.66 µM, a GI50 (SR) of 990 nM and a TGI (SR) of 18.1 µM. It also gave a CC50 (SR; [29]) greater than 75 µM, a GI50 (EKVX) of 10.8 µM and an LC50 (EKVX) of 40.3 µM. It also gave a TGI (EKVX) of 20.9 µM, a GI50 [11] of 1610 nM and an LC50 [11] of 9.63 µM. The TGI [11] was 3.58 µM, the GI50 [12] was 11.5 µM and the LC50 [12] was 42.2 µM. It also gave a TGI [12] of 22 µM, a GI50 (M14) of 2860 nM and an LC50 (M14) of 45.8 µM. It also gave a TGI (M14) of 11.9 µM, a GI50 [13] of 1490 nM and an LC50 (concentration killing 50% of cells) [13] of 6.13 µM. It also gave a TGI [13] of 3.02 µM, a GI50 [14] of 6.56 µM and an LC50 [14] of 40 µM. It also gave a TGI [14] of 16.8 µM, a GI50 [15] of 2800 nM and an LC50 (concentration killing 50% of cells) [15] of 27 µM. For the same compound, the TGI [15] was 9.74 µM, the GI50 [16] was 2320 nM and the TGI [16] was 7.93 µM. For the same compound, the CC50 [16, 29] was 25.1 µM, the GI50 (MDA-MB-468 [17]) was 1530 nM and the LC50 (MDA-MB-468 [17]) was 6.39 µM. For the same compound, the TGI (MDA-MB-468 [17]) was 3.13 µM and the Activity (K562) was 4.81%.
C=C1CC[C@@H]2[C@](C)(COC(C)=O)[C@H](OC(C)=O)CC[C@@]2(C)[C@@H]1CC(NCc1ccc(F)cc1)C1=CCOC1=O (mixture of isomers) showed an Activity (NCI-H460) of 55.22%, an Activity [1] of 33.73% and an Activity (KM12) of 46.48%. The Activity [2] was 32.04%, the Activity (SK-MEL-28) was 77.79% and the Activity [4] was 45.84%. The Activity [5] was 94.32%, the Activity [6] was 31.26% and the Activity (MCF7) was 16.58%. The Activity [7] was 72.47%, the Activity (T47D) was 26.6% and the Activity (MDA-MB-468 [8]) was 27.52%. For the same compound, the inhibition of growth at 10 µM [18] was 9.52%, the inhibition of growth at 10 µM [19] was 0.37% and the inhibition of growth at 10 µM [20] was 81.2%. It also gave an inhibition of growth at 10 µM (NCI-H23) of 42.1%, an inhibition of growth at 10 µM (NCI-H322M) of 27.5% and an inhibition of growth at 10 µM [21] of 57.9%. For the same compound, the inhibition of growth at 10 µM [22] was 41.9%, the inhibition of growth at 10 µM [23] was 90.7% and the inhibition of growth at 10 µM [24] was 81.4%. For the same compound, the inhibition of growth at 10 µM [25] was 54%, the inhibition of growth at 10 µM [26] was 19.4% and the inhibition of growth at 10 µM [27] was 33.4%. For the same compound, the inhibition of growth at 10 µM [28] was 71.3% and the Activity (K562) was 18.84%.

Source: ChEMBL document CHEMBL3734705, “Synthesis and in vitro cytotoxicity of novel C-12 substituted-14-deoxy-andrographolide derivatives as potent anti-cancer agents” (2015)
